Test results from patent publication US9125928B2, “Agent for suppressing the formation of abnormal skin cells caused by exposure to light” (OTSUKA PHARMACEUTICAL CO., LTD., priority 2010, dated 2015).

Legend:
caspase 3 = test: Caspase 3 activity in human epidermal keratinocytes treated with AMP2Na, with or without UV-B irradiation; format: cell-based
Excerpt: The present Example examined a change in the caspase activity when human epidermal cells treated with disodium adenosine 5′-monophosphate (AMP2Na) were irradiated with ultraviolet light.
Human epidermal keratinocytes (purchased from Kurabo Industries Ltd.) were precultured using EpiLife-KG2 culture medium (produced by Kurabo Industries Ltd.) in 10 cm collagen-coated petri dishes (produced by Asahi Glass Co., Ltd.), and seeded at a density of 30,000 cells/well into a collagen-coated 96-well microplate. After cultivation in the EpiLife-KG2 culture medium for 8 hours, the culture medium was replaced with EpiLife culture medium (produced by Kurabo Industries Ltd.), followed by cultivation for an additional 16 hours. Subsequently, the culture medium was replaced with AMP2Na-containing culture medium adjusted to various concentrations. […] Subsequently, the activity of caspase 3 expressed in the cells were measured using a SensoLyte™ Rh110 Caspase 3 Assay Kit (produced by AnaSpec, Inc.). […] Further, in order to examine influences that AMP2Na affect the caspase activity of normal cells, caspase activity of the cells that were not irradiated with UV-B but treated with AMP2Na was determined. […]

JB6 cells = test: Amount of cyclobutane pyrimidine dimers (CPD) in genomic DNA of UV-B irradiated JB6 cells, by ELISA; format: cell-based, mouse; conditions: 15 mJ/cm^2 UV-B, 48 h
Description: In this Example, normal mouse epidermal cells were irradiated with ultraviolet light, and then cultured in an AMP2Na-containing culture medium. Using the amount of cyclobutane pyrimidine dimers (CPD) as an index, the action of AMP2Na to reduce DNA mutation was examined.
Normal mouse epidermal cell-derived JB6 cells (purchased from ATCC) were cultured in an FBS-containing MEM culture medium until subconfluent. Subsequently, 4×10^5 cultured cells were seeded into a 3.5 cm-dish with MEM (minimum essential medium) culture medium containing FBS (fetal bovine serum). Next day after the seeding, the culture medium was replaced with a serum-free MEM culture medium for serum starvation. Subsequently, the culture medium was replaced with PBS, followed by the irradiation with 15 mJ/cm^2 of UV-B. After ultraviolet irradiation, the culture medium was replaced with serum-free MEM culture medium containing 0.01 mM, 0.1 mM, or 1 mM AMP2Na or AMP2Na-free culture-medium (control). After the replacement of the culture medium, the cells were cultured with 5% CO2 at 37° C. for 48 hours, and then collected.
Genomic DNA was extracted from the collected cells using a FastPure (trademark) DNA kit (Takara Bio Inc.). The extraction was carried out in accordance with the kit manual.
The amount of CPD in genomic DNA extracted from each cell was measured using ELISA. In particular, the extracted genomic DNA was heated at 100° C. for 10 minutes, and cooled on ice. Subsequently, genomic DNA was dispensed (50 μL/well) into a 96-well microplate coated with protamine sulfate, and dried. The following day, each of the wells was washed with PBS-T (PBS with Tween 20), and FBS-containing PBS was dispensed into each of the wells. The wells were then kept for 30 minutes at 37° C. […] Subsequently, the absorbance values at 492 nm were measured, and the amount of CPD in genomic DNA was calculated to determine the rate of change of CPD (variation in the relative amount of CPD; %) under each condition when the amount of CPD in the case of cultivation in the AMP2Na-free culture medium was assigned a value of 100%.

Hos:HR-1 mice = test: Preventive effect on skin cancer in ultraviolet light-irradiated hairless mice; format: in vivo; conditions: 3% AMP2Na in 20% ethanol aqueous solution, 0.1 mL on the back twice a day, 5 days a week
Description: In this Example, hairless mice were irradiated with ultraviolet light, and the preventive effect of AMP2Na against photocarcinogenesis in the mice was examined.
5-week-old female Hos:HR-1 mice were purchased from Japan SLC, Inc., and from the age of 7 weeks, ultraviolet light (UV-B) irradiation was performed on their back. The ultraviolet irradiation (irradiation amount per time: 60 mJ/cm^2) was performed once a day, 5 days a week, for 12 weeks.
Then, a 20% ethanol aqueous solution containing 3% of AMP2Na dissolved therein (test solution) and a 20% ethanol aqueous solution containing no AMP2Na (base) were prepared.
After feeding the ultraviolet light-irradiated mice under normal conditions for 1 week, the mice were divided into 3 groups (6 mice in each group) under the conditions shown in Table 1, and fed for 12 weeks.
The development of tumors was determined, and the number of tumors was counted.

[1] = 6th week from start of application

Nc1ncnc2c1ncn2[C@@H]1O[C@H](COP(=O)([O-])[O-])[C@@H](O)[C@H]1O.[Na+].[Na+] [AMP2Na, disodium adenosine 5′-monophosphate]
caspase activity (caspase 3; human epidermal keratinocytes pretreated 2 h with AMP2Na, then 30 mJ/cm^2 UV-B, measured after 6 h cultivation): significant increase in the caspase activity
caspase activity (caspase 3; non-ultraviolet-irradiated human epidermal keratinocytes, 2 h treatment with AMP2Na-containing medium at various concentrations): almost no increase in the caspase activity
relative amount of CPD (JB6 cells; then 0.1 mM AMP2Na, versus control): decrease in the relative amount of CPD compared to the control group was significant
relative amount of CPD (JB6 cells; then 1 mM AMP2Na, versus control): decrease in the relative amount of CPD compared to the control group was significant
relative amount of CPD (JB6 cells; then AMP2Na added (0.01, 0.1 or 1 mM), AMP2Na-free control = 100%): decreased compared to the control group
average number of tumors developed per mouse (Hos:HR-1 mice; [1]): 0
tumor formation on the back of the mice (Hos:HR-1 mice; [1]): not in the test solution-applied group
tumor incidence (Hos:HR-1 mice; [1]): 0%
tumor incidence (Hos:HR-1 mice; 12th week from start of application): 17%
